One molecule from patent US20240301499A1, “METHOD FOR IDENTIFYING HARD-TO-TREAT OSTEOSARCOMA PATIENTS AT DIAGNOSIS AND IMPROVING THEIR OUTCOME BY PROVIDING NEW THERAPY” (Institut Gustave Roussy, priority 2021, published 2024) can be followed below.

Like-named read-outs stand apart in the source and are kept apart here.

One test relates to MAP-217 PT PDX model. As to the kind of experiment: Osteosarcoma orthotopic (paratibial) PDX model MAP-217. The test is classed as in vivo, NSG mice. The settings on record: IP 10 mg/kg/injection daily. From the text: Experiments were validated by the CEEA26, Ethic committee (approval number APAFIS #27183-2020091414229028 v3) and carried out under conditions established by the European Community (Directive 2010/63/UE). Animals were purchased at Gustave Roussy (Villejuif, France) and maintained in the respective animal facilities following standard animal regulation, health and care, and ethical controls. Osteosarcoma PDXs were established from relapsed patients by transplantation in immunocompromised NSG mice and considered as established when tumor growth was sustained after at least two in vivo passages. […] Clinical status, tumor uptake and tumor growth will be evaluated one to 3 times a week. Paratibial tumor was detected by palpation and tumor gross appearance (caliper measurements). […] Mice were then anesthetized and bone structure alterations were analyzed by CTscan imaging. […]
Groups of 8 animals bearing the same OTS orthotopic PDX model were treated from day 14 after tumor implantation with intraperitoneal (IP) injection (volume of 10 m/kg) every day with either T0070907 (10 mg/Kg/injection) or with vehicle (saline, control group). […] Clinical status, tumor uptake and tumor growth were evaluated each two days. Paratibial tumors were detected by palpation, tumor gross apparition (caliper measurements). […]

Test [1] deals with 7 human osteosarcoma lines. As to the kind of experiment: MTS cell proliferation assay, 48 and 72 h (first Example 2). The conditions noted are these: MTS test. The format is cell-based. On the procedure:
HOS, 143B, MG-63, U2OS and IOR/OS18 cell lines were seeded at 5,000 cells per well, Saos-2, Saos-2-B and IOR/OS14 cell lines were seeded at 10,000 cells per well in a 96-well plate containing a final volume of 100 μl/well and left to settle overnight in DMEM with 10% fetal calf serum.
The cells were treated with different drugs (PPARγ agonists troglitazone (TGZ) or rosiglitazone (RGZ), or PPARγ antagonist T0070907, dissolved in DMSO) at concentrations ranging from 0 μmol/l to 100 μmol/L. The control (untreated cells) get the same volume of DMSO when the cells are treated (10 μl per 1 ml). Cell viability was determined 48 and 72 hours after exposure. Old medium was removed and a solution with MTS/new medium (20 μl of MTS solution−final concentration 0.33 mg/ml) (CellTiter 96 Aqueous One Solution Cell Proliferation Assay; Promega Corporation, Charbonnieres, France) was added. A set of wells were prepared only with MTS/new medium for background subtraction at the same time. An incubation from 1 to 7 hours at 37° C. (cell line metabolism dependent) was performed follow by a colorimetric measurement at 490 nm in an automatic plate reader (Elxb808; Fisher Bioblock Scientific SAS, Illkirch, France).

In test [2] the test system is 8 osteosarcoma parental cell lines. As to the kind of experiment: In vitro cell viability (MTS assay), 72 h. The format is cell-based, human. On the procedure: (§1) Parental HOS, 143B, MG-63, IOR/OS18, resistant derived HOS R/MTX and derived PPARγ shRNA or overexpressing PPARγ cell lines were seeded at 5000 cells/well, parental, Saos2, Saos-2B, IOR/OS14, resistant derived HOS R/DOXO and derived PPARγshRNA or overexpressing PPARγ lines were seeded at 10,000 cells/well in a 96-well plate in DMEM supplemented with 10% FBS for both assays.
(§2) The day after seeding, cells were incubated in the presence of a range of drug concentrations for 72 h (from 0 to 100 μmol/L for DOXO, MAF; 0 to 500 μmol/L for MTX, T0070907, Rosiglitazone (RGZ) and Troglitazone (TGZ)). Cell viability was evaluated using the CellTiter 96 Aqueous One Solution Cell Proliferation Assay (MTS assay) (Promega, Charbonnieres, France), according to the manufacturer instructions. The half-maximal inhibitory concentration (IC50) was determined using the GraphPad Prism5 software (Graphpad Software Inc., California, USA).
(In general: Formazan colour is commonly taken as a measure of viable cells.)

Test [3] has as its system HOS cells. As to the kind of experiment: RNA sequencing of treated HOS cells. The format is cell-based, human. The settings on record: T0070907 at 25 μM for 24 h.
Test [4] concerns HOS cells. The test can be described thus: In vitro cell viability (MTS assay), HOS. The test is classed as cell-based, human. The procedure: as §1, §2

As for `O=C(Nc1ccncc1)c1cc([N+](=O)[O-])ccc1Cl` [T0070907], the “delay to reach 2.5 time the initial leg volume, higher compared to control” value in the test on MAP-217 PT PDX model is given as 20%. Moreover, the lung metastases result in the test with MAP-217 PT PDX model (IHC human Ki67 at sacrifice) was “decreased lung metastases in number and size”. Moreover, the IC50 in test [1] (read-out: IC50 (cell viability), range over cell lines) is 9 to 18 µM; in test [1] (read-out: median IC50 (cell viability)), 20 µM; in test [2] (8 osteosarcoma parental cell lines, read-out: IC50, range over cell lines), 9.3 to 37.4 µM; in test [2] (all 8 osteosarcoma parental cell lines, read-out: Median IC50), 20 µM; with HOS cells [4], 25 µM. Moreover, in the test with HOS cells [3], the “RNA sequencing: transcription programs induced” value was “induction of pro-apoptotic and osteoblastic differentiation programs”.

As usually defined, the IC50 is the concentration at which inhibition is half-maximal.
